Patent publication US11505553B2, “2-(Het)aryl-substituted fused heterocycle derivatives as pesticides” (Bayer Aktiengesellschaft, priority 2017, dated 2022)
Like-named read-outs stand apart in the source and are kept apart here.

Key:
Format in all cases: in vivo
Myzus persicae [1] = assay: Myzus persicae spray test (MYZUPE), contrastive examples; conditions: 120 h, 5 dat, read-out: % efficacy
Procedure: Solvent: 78.0 parts by weight of acetone • • 1.5 parts by weight of dimethylformamide Emulsifier: alkylaryl polyglycol ether To produce a suitable active ingredient formulation, 1 part by weight of active ingredient is dissolved with the specified parts by weight of solvent and made up to the desired concentration with water containing an emulsifier concentration of 1000 ppm. To produce further test concentrations, the formulation is diluted with emulsifier-containing water. Discs of chinese cabbage leaves (Brassica pekinensis) infested by all stages of the green peach aphid (Myzus persicae) are sprayed with an active ingredient formulation of the desired concentration. After the desired time, the efficacy in % is determined. 100% means that all aphids have been killed; 0% means that no aphids have been killed.

Nezara viridula = Nezara viridula spray test (NEZARA); conditions: 96 h, NEZAVI, 4 dat, read-out: % efficacy
Procedure: Solvent: 52.5 parts by weight of acetone • 7 parts by weight of dimethylformamide Emulsifier: alkylaryl polyglycol ether To produce an appropriate active ingredient formulation, 1 part by weight of active ingredient is dissolved with the stated parts by weight of solvent and made up with water containing an emulsifier concentration of 1000 ppm until the desired concentration is attained. For production of further test concentrations, the mixture is diluted with emulsifier-containing water. If addition of ammonium salts or/and penetrants is required, these are each added to the preparation solution in a concentration of 1000 ppm. Barley plants (Hordeum vulgare) infested with larvae of the southern green shield bug (Nezara viridula) are sprayed with an active ingredient formulation of the desired concentration. After the desired time, the efficacy in % is determined. 100% means that all bugs have been killed; 0% means that no bugs have been killed.

Tetranychus urticae = Tetranychus urticae spray test; OP-resistant (TETRUR), contrastive examples; conditions: 144 h, 6 dat, read-out: % efficacy
Procedure: Solvent: 78.0 parts by weight of acetone • • 1.5 parts by weight of dimethylformamide Emulsifier: alkylaryl polyglycol ether To produce an appropriate active ingredient formulation, 1 part by weight of active ingredient is dissolved with the stated parts by weight of solvent and made up with water containing an emulsifier concentration of 1000 ppm until the desired concentration is attained. For production of further test concentrations, the mixture is diluted with emulsifier-containing water. Discs of bean leaves (Phaseolus vulgaris) infested by all stages of the common spider mite (Tetranychus urticae) are sprayed with an active ingredient formulation of the desired concentration. After the desired time, the efficacy in % is determined. 100% means that all spider mites have been killed; 0% means that no spider mites have been killed.

Nilaparvata lugens [2] = assay: Nilaparvata lugens spray test (NILALU); conditions: 96 h, 4 dat, read-out: % efficacy
Procedure: Solvent: 52.5 parts by weight of acetone • 7 parts by weight of dimethylformamide
Emulsifier: alkylaryl polyglycol ether
To produce an appropriate active ingredient formulation, 1 part by weight of active ingredient is dissolved with the stated parts by weight of solvent and made up with water containing an emulsifier concentration of 1000 ppm until the desired concentration is attained. For production of further test concentrations, the mixture is diluted with emulsifier-containing water. If addition of ammonium salts or/and penetrants is required, these are each added to the preparation solution in a concentration of 1000 ppm.
Rice plants (Oryza sativa) are sprayed with an active ingredient formulation of the desired concentration and then populated with larvae of the rice cicada (Nilaparvata lugens).
After the desired time, the efficacy in % is determined. 100% means that all rice cicadas have been killed; 0% means that no rice cicadas have been killed.

Aphis gossypii = Aphis gossypii spray test (APHIGO); conditions: 144 h, 6 dat, read-out: % efficacy
Procedure: Solvent: 14 parts by weight of dimethylformamide Emulsifier: alkylaryl polyglycol ether To produce an appropriate active ingredient formulation, 1 part by weight of active ingredient is dissolved with the stated parts by weight of solvent and made up with water containing an emulsifier concentration of 1000 ppm until the desired concentration is attained. For production of further test concentrations, the mixture is diluted with emulsifier-containing water. If addition of ammonium salts or/and penetrants is required, these are each added to the preparation solution in a concentration of 1000 ppm. Cotton plants (Gossypium hirsutum) severely infested by the cotton aphid (Aphis gossypii) are sprayed with an active ingredient formulation of the desired concentration. After the desired time, the kill in % is determined. 100% means that all aphids have been killed; 0% means that no aphids have been killed.

Nilaparvata lugens [3] = assay: Nilaparvata lugens test (NILALU S); conditions: read-out: % efficacy
Procedure: Solvent: 14 parts by weight of dimethylformamide Emulsifier: 2 parts by weight of alkylaryl polyglycol ether To produce an appropriate active ingredient formulation, 1 part by weight of active ingredient is dissolved with the stated parts by weight of solvent and emulsifier and made up with water until the desired concentration is attained. For production of further test concentrations, the mixture is diluted with water. If addition of ammonium salts or/and penetrants (rapeseed oil methyl ester) is required, these are each pipetted into the finished preparation solution in a concentration of 1000 ppm after the dilution. Rice plants (Oryza sativa, var. Balilla) are treated by spraying with the active ingredient formulation in the desired concentration and then populated with L3 larvae of the brown planthopper (Nilaparvata lugens). After the desired time, the kill in % is determined. 100% means that all planthoppers have been killed and 0%, means that no planthoppers have been killed.

Myzus persicae [4] = assay: Myzus persicae drench test (MYZUPE D); conditions: soil, 240 h, 10 dat, read-out: % efficacy
Procedure: Solvent: 7 parts by weight of dimethylformamide Emulsifier: 2 parts by weight of alkylaryl polyglycol ether To produce an appropriate active ingredient formulation, 1 part by weight of active ingredient is mixed with the stated amounts of solvent and emulsifier, and the concentrate is diluted with water to the desired concentration, it being necessary to take into account soil volume into which drenching is effected. It should be ensured that a concentration of 40 ppm of emulsifier in the soil is not exceeded. For production of further test concentrations, the mixture is diluted with water. Savoy cabbage plants (Brassica oleracea) in earth pots, infested by all stages of the green peach aphid (Myzus persicae), are drenched with an active ingredient formulation of the desired concentration. After the desired time, the efficacy in % is determined. 100% means that all aphids have been killed; 0% means that no aphids have been killed.

CCNC(=O)Nc1ccc(S(=O)(=O)CC)c(-c2nc3cc(C(F)(F)C(F)(F)F)nnc3n2C)n1 [Comparison, reference compound]
Emax at 4 g/ha (Myzus persicae [1]): 0%
Emax at 0.8 g/ha (Nezara viridula): 0%
Emax at 100 g/ha (Tetranychus urticae): 0%
Emax at 4 g/ha (Nilaparvata lugens [2]): 0%
Emax at 4 ppm (Aphis gossypii): 15%
Emax at 0.8 ppm (Nilaparvata lugens [3]; 168 h, 7 dat): 5%
Emax at 0.8 ppm (Nilaparvata lugens [3]; 336 h, 14 dat): 20%
Emax at 0.8 ppm (Myzus persicae [4]): 0%
